System: VP16TRα, Gal4-SRC-1, and UAS-TK-luciferase
Test: positive two-hybrid system, luciferase reporter, VP16TRα and Gal4-SRC-1
Type: cell-based
Settings: CHO cells triple transfected; dose-response curve; FIG. 8
Source text: “Receptor” indicates LBD-TRX, with the LBD exemplified by a genereic nuclear receptor (NR) LBD with bound ligand (L), and the TRX domain represented by the VP16 acidic activation domain (VP16). “Coactivator” indicates a CA-TRX, with exemplary CA species being a portion of the SRC-1 protein, a portion of the CBP protein, or isolated LCD sequences from those proteins, the TRX domain is exemplified as the Gal4 DNA binding domain (DBD). “Corepressor” indicates a CR-TRX, with exemplary CR species being the interacting domains (ID1 or ID2) from SMRT or NcoR fused to the TRX domain as exemplified by Gal4 DNA binding domain (DBD). The reporter polynucleotide is exemplified as a UAS-TK-luciferase reporter containing binding sites for Gal4 DBD. CHO cells were triple transfected with these constructs and hormone added.
“Receptor” indicates LBD-TRX, with the LBD exemplified by a genereic nuclear receptor (NR) LBD with bound ligand (L), and the TRX domain represented by the VP16 acidic activation domain (VP16). “Coactivator” indicates a CA-TRX, with exemplary CA species being a portion of the SRC-1 protein, a portion of the CBP protein, or isolated LCD sequences from those proteins, the TRX domain is exemplified as the Gal4 DNA binding domain (DBD). […]

reporter (luciferase) response: dose-dependent
Compound: N[C@@H](Cc1cc(I)c(Oc2ccc(O)c(I)c2)c(I)c1)C(=O)O [T3, triiodothyronine]

From patent US6410245B1, “Compositions and methods for detecting ligand-dependent nuclear receptor and coactivator interactions” (priority 1998, dated 2002)
